Some results are limits rather than exact numbers.

Broadly, the IC50 is the concentration needed to halve the response being measured. What is called inhibition is the relative decrease from the control value, in per cent.

The target of the assay is T1, recombinant human ALK enzyme (ALK WT) (Homo sapiens, UniProt Q9UM73).
T1 construct: purchased Carna Biosciences 08-518
Put plainly: ALK WT cell free enzymatic assay (TR-FRET). The class given is biochemical. The settings on record: 1 μM ATP; for IC50: 10 point dose response; for inhibition at 0.1 µM: compound at 100 nM; for inhibition at 0.1 µM / inhibition at 1 µM: 30 min pre-incubation; for inhibition at 1 µM: compound at 1 μM. The procedure, abridged: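 Read-out is TR-FRET (665 nm/615 nm ratio) using an Eu-labeled anti-phosphotyrosine antibody. Compound is pre-incubated 30 min with recombinant human ALK, then reacted 30 min with 1 μM ATP and 40 nM Poly GT substrate. Values are percent inhibition at 100 nM and 1 μM, plus IC50 from 10-point variable-slope regression.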
(In general: TR-FRET usually uses a lanthanide donor and a delayed reading to cut background.)

T1 sequence (Q9UM73 1058-1620 limits assumed): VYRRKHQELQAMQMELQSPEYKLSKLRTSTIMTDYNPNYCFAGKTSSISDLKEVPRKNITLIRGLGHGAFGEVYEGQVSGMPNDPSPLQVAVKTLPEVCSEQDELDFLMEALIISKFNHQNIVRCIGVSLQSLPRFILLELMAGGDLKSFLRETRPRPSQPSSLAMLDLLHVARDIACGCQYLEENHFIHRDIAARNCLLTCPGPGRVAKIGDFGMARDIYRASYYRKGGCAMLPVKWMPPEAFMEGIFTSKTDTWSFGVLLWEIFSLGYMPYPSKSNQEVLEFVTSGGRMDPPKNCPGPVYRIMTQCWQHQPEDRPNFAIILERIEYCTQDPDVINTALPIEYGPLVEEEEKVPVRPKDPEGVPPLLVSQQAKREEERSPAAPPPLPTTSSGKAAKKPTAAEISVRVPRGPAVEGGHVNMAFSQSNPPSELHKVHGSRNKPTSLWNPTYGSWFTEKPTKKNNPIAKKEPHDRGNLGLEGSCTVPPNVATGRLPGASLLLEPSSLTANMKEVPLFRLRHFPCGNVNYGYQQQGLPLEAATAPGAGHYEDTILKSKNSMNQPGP

Turning to `c1cncc(Cn2cc(-c3c[nH]c4ncc(-c5ccc(N6CCNCC6)cc5)cc34)cn2)c1` [Example 131, 5-(4-(piperazin-1-yl)phenyl)-3-(1-(pyridin-3-ylmethyl)-1H-pyrazol-4-yl)-1H-pyrrolo[2,3-b]pyridine], the IC50 was under 50 nM, the inhibition at 0.1 µM was 83% and the inhibition at 1 µM was 99%.
Taken in the same sequence, the figures for `Fc1cccc(Cn2cc(-c3c[nH]c4ncc(-c5ccc(N6CCNCC6)nc5)cc34)cn2)c1` [Example 132, 3-(1-(3-fluorobenzyl)-1H-pyrazol-4-yl)-5-(6-(piperazin-1-yl)pyridin-3-yl)-1H-pyrrolo[2,3-b]pyridine] were under 50 nM, 100% and 100%.
Taken in the same sequence, the figures for `CN1CCN(c2ccc(-c3cnc4[nH]cc(-c5cnn(Cc6cc(F)cc(F)c6)c5)c4c3)cn2)CC1` [Example 133, 3-(1-(3,5-difluorobenzyl)-1H-pyrazol-4-yl)-5-(6-(4-methylpiperazin-1-yl)pyridin-3-yl)-1H-pyrrolo[2,3-b]pyridine] were under 50 nM, 97% and 100%.
As for `Fc1cc(F)cc(Cn2cc(-c3c[nH]c4ncc(-c5ccc(N6CCNCC6)nc5)cc34)cn2)c1` [Example 134, 3-(1-(3,5-difluorobenzyl)-1H-pyrazol-4-yl)-5-(6-(piperazin-1-yl)pyridin-3-yl)-1H-pyrrolo[2,3-b]pyridine], the IC50 is under 50 nM, the inhibition at 0.1 µM is 97% and the inhibition at 1 µM worked out at 100%.
Taken in the same sequence, the figures for `C[C@H](O)CN1CCN(c2ccc(-c3cnc4[nH]cc(-c5cnn(Cc6cc(F)cc(F)c6)c5)c4c3)cn2)CC1` [Example 135, (S)-1-(4-(5-(3-(1-(3,5-difluorobenzyl)-1H-pyrazol-4-yl)-1H-pyrrolo[2,3-b]pyridin-5-yl)pyridin-2-yl)piperazin-1-yl)propan-2-ol] were under 50 nM, 95% and 100%.
For `NC(=O)CN1CCN(c2ccc(-c3cnc4[nH]cc(-c5cnn(Cc6cc(F)cc(F)c6)c5)c4c3)cn2)CC1` [Example 136, 2-(4-(5-(3-(1-(3,5-difluorobenzyl)-1H-pyrazol-4-yl)-1H-pyrrolo[2,3-b]pyridin-5-yl)pyridin-2-yl)piperazin-1-yl)acetamide] the same measures were under 50 nM, 97% and 99%.
In the case of `CN1CCN(c2ccc(-c3cnc4[nH]cc(-c5cnn(Cc6cccc(F)c6)c5)c4c3)cn2)CC1` [Example 137, 3-(1-(3-fluorobenzyl)-1H-pyrazol-4-yl)-5-(6-(4-methylpiperazin-1-yl)pyridin-3-yl)-1H-pyrrolo[2,3-b]pyridine], the IC50 was under 50 nM, the inhibition at 0.1 µM was determined as 99% and the inhibition at 1 µM came to 100%.
For the compound `C[C@H](O)CN1CCN(c2ccc(-c3cnc4[nH]cc(-c5cnn(Cc6cccc(F)c6)c5)c4c3)cn2)CC1` [Example 138, (S)-1-(4-(5-(3-(1-(3-fluorobenzyl)-1H-pyrazol-4-yl)-1H-pyrrolo[2,3-b]pyridin-5-yl)pyridin-2-yl)piperazin-1-yl)propan-2-ol], the IC50 was under 50 nM, the inhibition at 0.1 µM was 100% and the inhibition at 1 µM stood at 100%.
As to `NC(=O)CN1CCN(c2ccc(-c3cnc4[nH]cc(-c5cnn(Cc6cccc(F)c6)c5)c4c3)cn2)CC1` [Example 139, 2-(4-(5-(3-(1-(3-fluorobenzyl)-1H-pyrazol-4-yl)-1H-pyrrolo[2,3-b]pyridin-5-yl)pyridin-2-yl)piperazin-1-yl)acetamide], the IC50 was under 50 nM, the inhibition at 0.1 µM is 99% and the inhibition at 1 µM was 100%.
Taken in the same sequence, the figures for `c1ccc(CCn2cc(-c3c[nH]c4ncc(-c5ccc(N6CCNCC6)nc5)cc34)cn2)cc1` [Example 140, 3-(1-phenethyl-1H-pyrazol-4-yl)-5-(6-(piperazin-1-yl)pyridin-3-yl)-1H-pyrrolo[2,3-b]pyridine] were under 50 nM, 80% and 95%.
In the case of `CN1CCN(c2ccc(-c3cnc4[nH]cc(-c5cnn(CCc6ccccc6)c5)c4c3)cn2)CC1` [Example 141, 5-(6-(4-methylpiperazin-1-yl)pyridin-3-yl)-3-(1-phenethyl-1H-pyrazol-4-yl)-1H-pyrrolo[2,3-b]pyridine], the half-maximal inhibitory concentration (IC50) was under 50 nM, the inhibition at 0.1 µM is 58% and the inhibition at 1 µM came to 96%.
For `OCCN1CCN(c2ccc(-c3cnc4[nH]cc(-c5cnn(Cc6cccc(F)c6)c5)c4c3)cn2)CC1` [Example 142, 2-(4-(5-(3-(1-(3-fluorobenzyl)-1H-pyrazol-4-yl)-1H-pyrrolo[2,3-b]pyridin-5-yl)pyridin-2-yl)piperazin-1-yl)ethanol], the inhibition at 0.1 µM is 94% and the inhibition at 1 µM came to 100%.
For `C[C@H](O)CN1CCN(c2ccc(-c3cnc4[nH]cc(-c5cnn(CCc6ccccc6)c5)c4c3)cn2)CC1` [Example 143, (S)-1-(4-(5-(3-(1-phenethyl-1H-pyrazol-4-yl)-1H-pyrrolo[2,3-b]pyridin-5-yl)pyridin-2-yl)piperazin-1-yl)propan-2-ol] the same measures were 60% and 98%.
As for `COc1nc(N2CCN(C[C@H](C)O)CC2)ccc1-c1cnc2[nH]cc(-c3cnn(Cc4cccc(F)c4)c3)c2c1` [Example 144, (S)-1-(4-(5-(3-(1-(3-fluorobenzyl)-1H-pyrazol-4-yl)-1H-pyrrolo[2,3-b]pyridin-5-yl)-6-methoxypyridin-2-yl)piperazin-1-yl)propan-2-ol], the IC50 was under 50 nM, the inhibition at 0.1 µM worked out at 76% and the inhibition at 1 µM turned out to be 94%.
Taken in the same sequence, the figures for `Cc1cccc(Cn2cc(-c3c[nH]c4ncc(-c5ccc(N6CCN(C[C@H](C)O)CC6)nc5)cc34)cn2)c1` [Example 145, (S)-1-(4-(5-(3-(1-(3-methylbenzyl)-1H-pyrazol-4-yl)-1H-pyrrolo[2,3-b]pyridin-5-yl)pyridin-2-yl)piperazin-1-yl)propan-2-ol] were under 50 nM, 83% and 99%.
Taken in the same sequence, the figures for `C[C@H](O)CN1CCN(c2ccc(-c3cnc4[nH]cc(-c5cnn(Cc6cccc(F)c6)c5)c4c3)nc2)CC1` [Example 146, (S)-1-(4-(6-(3-(1-(3-fluorobenzyl)-1H-pyrazol-4-yl)-1H-pyrrolo[2,3-b]pyridin-5-yl)pyridin-3-yl)piperazin-1-yl)propan-2-ol] were 50 to 250 nM, 60% and 97%.
For `CN(C)CC(=O)N1CCN(c2ccc(-c3cnc4[nH]cc(-c5cnn(Cc6cccc(F)c6)c5)c4c3)cn2)CC1` [Example 147, 2-(dimethylamino)-1-(4-(5-(3-(1-(3-fluorobenzyl)-1H-pyrazol-4-yl)-1H-pyrrolo[2,3-b]pyridin-5-yl)pyridin-2-yl)piperazin-1-yl)ethanone] the same measures were under 50 nM, 99% and 100%.
As for `C[C@H](O)CN1CCN(c2ccc(-c3cnc4[nH]cc(-c5cnn(Cc6ccccc6)c5)c4c3)cn2)CC1` [Example 148, (S)-1-(4-(5-(3-(1-benzyl-1H-pyrazol-4-yl)-1H-pyrrolo[2,3-b]pyridin-5-yl)pyridin-2-yl)piperazin-1-yl)propan-2-ol], the IC50 is under 50 nM, the inhibition at 0.1 µM came out at 94% and the inhibition at 1 µM stood at 100%.
Taken in the same sequence, the figures for `COCCN1CCN(c2ccc(-c3cnc4[nH]cc(-c5cnn(Cc6cccc(F)c6)c5)c4c3)cn2)CC1` [Example 149, 3-(1-(3-fluorobenzyl)-1H-pyrazol-4-yl)-5-(6-(4-(2-methoxyethyl)piperazin-1-yl)pyridin-3-yl)-1H-pyrrolo[2,3-b]pyridine] were under 50 nM, 95% and 100%.
For `N#CCN1CCN(c2ccc(-c3cnc4[nH]cc(-c5cnn(Cc6cccc(F)c6)c5)c4c3)cn2)CC1` [Example 150, 2-(4-(5-(3-(1-(3-fluorobenzyl)-1H-pyrazol-4-yl)-1H-pyrrolo[2,3-b]pyridin-5-yl)pyridin-2-yl)piperazin-1-yl)acetonitrile] the same measures were under 50 nM, 92% and 100%.
Take `C[C@H](O)CN1CCN(c2ccc(-c3cnc4[nH]cc(-c5cnn(Cc6cccc(O)c6)c5)c4c3)cn2)CC1` [Example 151, (S)-3-((4-(5-(6-(4-(2-hydroxypropyl)piperazin-1-yl)pyridin-3-yl)-1H-pyrrolo[2,3-b]pyridin-3-yl)-1H-pyrazol-1-yl)methyl)phenol]: the IC50 was under 50 nM, the inhibition at 0.1 µM is 92% and the inhibition at 1 µM was found to be 97%.
Taken in the same sequence, the figures for `CC(C)CN1CCN(c2ccc(-c3cnc4[nH]cc(-c5cnn(Cc6cccc(F)c6)c5)c4c3)cn2)CC1` [Example 152, 3-(1-(3-fluorobenzyl)-1H-pyrazol-4-yl)-5-(6-(4-isobutylpiperazin-1-yl)pyridin-3-yl)-1H-pyrrolo[2,3-b]pyridine] were under 50 nM, 80% and 100%.
Taken in the same sequence, the figures for `C[C@H](O)CN1CCN(c2ccc(-c3cnc4[nH]cc(-c5cnn(Cc6cccc(Cl)c6)c5)c4c3)cn2)CC1` [Example 153, (S)-1-(4-(5-(3-(1-(3-chlorobenzyl)-1H-pyrazol-4-yl)-1H-pyrrolo[2,3-b]pyridin-5-yl)pyridin-2-yl)piperazin-1-yl)propan-2-ol] were under 50 nM, 93% and 100%.

The values above are taken from US9353107B2 (Aurigene Discovery Technologies Limited, priority 2012, dated 2016).
